Values belong to the molecule of their own block, whether it stands above or below them. Calls of active or inactive are those of the source. The calls are words filed in the database; no cut-off is given here.
Key:
[1] = system: LN-229; assay: Cytotoxicity against human LN229 cells assessed as reduction in cell viability up to 3 uM measured after 24 hrs by MTT assay; format: functional, cell-based
[2] = target: T1, Heat shock protein 75 kDa, mitochondrial (Homo sapiens) (UniProt Q12931); assay: (§1) Binding affinity to recombinant wild-type human TRAP1 ATP site expressed in Escherichia coli BL21 (DE3) assessed as induction of conformational change by measuring closed state population of TRAP1 at 10 uM measured after 30 mins in absence of ATP by TEM analysis (reference value: 52.1 +/- 0.6 %)
T1 sequence (whole entry): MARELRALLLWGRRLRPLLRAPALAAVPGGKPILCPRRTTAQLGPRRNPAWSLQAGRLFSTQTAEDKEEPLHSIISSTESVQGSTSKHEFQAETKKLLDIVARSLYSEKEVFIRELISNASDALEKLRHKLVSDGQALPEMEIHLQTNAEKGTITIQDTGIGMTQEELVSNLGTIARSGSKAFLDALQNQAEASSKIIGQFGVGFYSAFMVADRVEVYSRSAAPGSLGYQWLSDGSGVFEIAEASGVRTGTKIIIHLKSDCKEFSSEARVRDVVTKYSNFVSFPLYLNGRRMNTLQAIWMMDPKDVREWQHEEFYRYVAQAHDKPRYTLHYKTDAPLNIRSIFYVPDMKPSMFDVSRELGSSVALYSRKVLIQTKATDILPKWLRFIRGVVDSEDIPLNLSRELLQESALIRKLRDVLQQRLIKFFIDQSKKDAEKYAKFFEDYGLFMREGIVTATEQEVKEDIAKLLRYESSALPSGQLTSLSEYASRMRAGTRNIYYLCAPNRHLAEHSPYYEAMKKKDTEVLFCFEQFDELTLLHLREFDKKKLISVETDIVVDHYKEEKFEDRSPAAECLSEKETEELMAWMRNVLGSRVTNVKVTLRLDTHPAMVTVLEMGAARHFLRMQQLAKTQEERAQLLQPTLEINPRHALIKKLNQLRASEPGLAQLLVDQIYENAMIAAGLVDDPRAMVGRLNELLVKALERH

[3] = system: NCI-H460; assay: Cytotoxicity against human NCI-H460 cells assessed as reduction in cell viability up to 3 uM measured after 24 hrs by MTT assay; format: functional, cell-based
[4] = target: T1, Heat shock protein 75 kDa, mitochondrial (Homo sapiens); assay: Inhibition of recombinant wild-type human TRAP1 chaperone activity expressed in Escherichia coli BL21 (DE3) at 5 uM preincubated for 30 mins followed by denatured luciferase and ATP addition by luciferase refolding assay
[5] = system: PC-3; assay: Cytotoxicity against human PC3 cells assessed as reduction in cell viability up to 3 uM measured after 24 hrs by MTT assay; format: functional, cell-based
[6] = target: T1, Heat shock protein 75 kDa, mitochondrial (Homo sapiens); assay: as §1, with “uM preincubated for 30 mins followed by ATP addition and” for “uM”, “mins” for “mins in absence of ATP”
[7] = target: T1, Heat shock protein 75 kDa, mitochondrial (Homo sapiens); assay: Inhibition of recombinant wild-type human TRAP1 ATPase activity expressed in Escherichia coli BL21 (DE3) preincubated for 0.5 hrs followed by ATP addition and measured after 3 hrs by PiColorLock Gold reagent based colorimetric assay
[8] = system: HeLa; assay: Cytotoxicity against human HeLa cells assessed as reduction in cell viability up to 3 uM measured after 24 hrs by MTT assay; format: functional, cell-based
[9] = target: T1, Heat shock protein 75 kDa, mitochondrial (Homo sapiens); assay: Inhibition of TRAP1 in human PC3 cells assessed as loss of mitochondrial membrane potential at 10 uM measured after 2 hrs by TMRM dye based flow cytometry; format: cell-based; settings: PC-3
[10] = system: Mus musculus; assay: In vivo inhibition of TRAP1 in nude mouse xenografted with human NCI-H460 cells assessed as increase in CHOP expression at 5 mg/kg, ip administered daily by Western blot analysis; format: functional, organism-based
[11] = species on record: Homo sapiens; assay: Inhibition of recombinant full-length human TRAP1 W383/W4F mutant expressed in Escherichia coli BL21 (DE3) assessed as intrinsic fluorescence quenching of tryptophan residues at 10 uM measured after 1 hr by fluorescence spectrophotometric method
[12] = system: NCI-H460; assay: Antitumor activity against human NCI-H460 cells xenografted in nude mouse assessed as induction of tumor cell death by measuring increase in cleaved caspase-3 expression at 5 mg/kg, ip administered daily by Western blot analysis; format: functional, organism-based
[13] = target: T1, Heat shock protein 75 kDa, mitochondrial (Homo sapiens); assay: Inhibition of TRAP1 in human PC3 cells assessed as increase in CHOP expression at 5 uM measured after 2 to 12 hrs by Western blot analysis; format: cell-based; settings: PC-3
[14] = system: NCI-H460; assay: Antitumor activity against human NCI-H460 cells xenografted in nude mouse assessed as induction of tumor cell death by measuring increase in cleaved caspase-9 expression at 5 mg/kg, ip administered daily by Western blot analysis; format: functional, organism-based
[15] = target: T1, Heat shock protein 75 kDa, mitochondrial (Homo sapiens); assay: Inhibition of TRAP1 in human PC3 cells assessed as increase in reactive oxygen species generation at 10 uM measured after 2 hrs by Mito-SOX probe based flow cytometry; format: cell-based; settings: PC-3
[16] = system: Mus musculus; assay: In vivo inhibition of TRAP1 in nude mouse xenografted with human NCI-H460 cells assessed as increase in AMPK phosphorylation at 5 mg/kg, ip administered daily by Western blot analysis; format: functional, organism-based
[17] = target: T1, Heat shock protein 75 kDa, mitochondrial (Homo sapiens); assay: Inhibition of TRAP1 in human PC3 cells assessed as reduction in SIRT3 expression at 5 uM measured after 2 to 12 hrs by Western blot analysis; format: cell-based; settings: PC-3
[18] = system: NCI-H460; assay: Antitumor activity against human NCI-H460 cells xenografted in nude mouse assessed as reduction in tumor cell proliferation at 5 mg/kg, ip administered daily by Ki67 staining based immunohistochemistry analysis; format: functional, organism-based
[19] = system: NCI-H460; assay: Antitumor activity against human NCI-H460 cells xenografted in nude mouse assessed as tumor growth inhibition at 5 mg/kg, ip administered daily; format: functional, organism-based
[20] = system: Mus musculus; assay: In vivo inhibition of TRAP1 in nude mouse xenografted with human NCI-H460 cells assessed as increase in SIRT3 degradation at 5 mg/kg, ip administered daily by Western blot analysis; format: functional, organism-based
[21] = target: T1, Heat shock protein 75 kDa, mitochondrial (Homo sapiens); assay: Inhibition of TRAP1 in human PC3 cells assessed as reduction in SDHB expression at 5 uM measured after 2 to 12 hrs by Western blot analysis; format: cell-based; settings: PC-3
[22] = target: T1, Heat shock protein 75 kDa, mitochondrial (Homo sapiens); assay: Inhibition of TRAP1 in human PC3 cells assessed as increase in AMPK phosphorylation at 5 uM measured after 2 to 12 hrs by Western blot analysis; format: cell-based; settings: PC-3
[23] = species on record: Homo sapiens; assay: Inhibition of recombinant full-length human TRAP1 W585/W4F mutant expressed in Escherichia coli BL21 (DE3) assessed as intrinsic fluorescence quenching of tryptophan residues at 10 uM measured after 1 hr by fluorescence spectrophotometric method
[24] = system: Mus musculus; assay: In vivo inhibition of TRAP1 in nude mouse xenografted with human NCI-H460 cells assessed as increase in SDHB degradation at 5 mg/kg, ip administered daily by Western blot analysis; format: functional, organism-based

SMILES: Nc1ncnc2c1nc(Sc1cc3c(cc1I)OCO3)n2CCC[P+](c1ccccc1)(c1ccccc1)c1ccccc1
inhibition [7]: Active

SMILES: CO[C@H]1/C=C\C=C(/C)C(=O)NC2=CC(=O)C(NCCCCCC[P+](c3ccccc3)(c3ccccc3)c3ccccc3)=C(C[C@@H](C)C[C@H](OC)[C@H](O)[C@@H](C)/C=C(\C)[C@@H]1OC(N)=O)C2=O
Activity [1]: Active
Activity [3]: Active
Activity [5]: Active

SMILES: CC(C)c1cc(-c2n[nH]c(=O)n2-c2ccc3c(ccn3C)c2)c(O)cc1O
Activity [1]: Active
Activity [3]: Active
Activity [5]: Active
Activity [8]: Active

SMILES: Nc1ncnc2c1nc(Sc1cc3c(cc1I)OCO3)n2CCCCCCCCCCCC[P+](c1ccccc1)(c1ccccc1)c1ccccc1
inhibition [7]: Active

The next lines start with results.

Activity [2]: 28.3%
inhibition [4]: Active
Activity [6]: 26.5%
inhibition [7]: Active
SMILES: CC(C)NCCCn1c(Sc2cc3c(cc2I)OCO3)nc2c(N)ncnc21
Activity [1]: Active
Activity [3]: Active
Activity [5]: Active
Activity [8]: Active

inhibition [7]: Active
SMILES: Nc1ncnc2c1nc(Sc1cc3c(cc1I)OCO3)n2CCCCCCCC[P+](c1ccccc1)(c1ccccc1)c1ccccc1

inhibition [9]: Active
inhibition [11]: Active
inhibition [13]: inactive
Activity [2]: 28.2%
inhibition [15]: Active
inhibition [4]: Active
inhibition [17]: inactive
Activity [6]: 41.3%
inhibition [21]: inactive
inhibition [7]: Active
inhibition [22]: inactive
inhibition [23]: Active
SMILES: Nc1ncnc2c1nc(Sc1cc3c(cc1I)OCO3)n2CCCCCC[P+](c1ccccc1)(c1ccccc1)c1ccccc1
inhibition [10]: inactive
Activity [12]: inactive
Activity [1]: Active
Activity [14]: inactive
Activity [3]: Active
inhibition [16]: inactive
Activity [5]: Active
Activity [18]: inactive
TGI [19]: inactive
inhibition [20]: inactive
inhibition [24]: inactive
Activity [8]: Active

— ChEMBL document CHEMBL4602687, “Dual Binding to Orthosteric and Allosteric Sites Enhances the Anticancer Activity of a TRAP1-Targeting Drug” (J Med Chem, 2020)
